# Where a name gives a salt, the structure may show the parent alone. Read-outs that look alike come from different tables or passages of the source. Positions of bridges follow the written chain, without caps; N, C: chain ends. Non-standard residues stand in square brackets, D forms with d. Residues, ends and D or L forms follow the SMILES beside them. *: point of attachment. X1 = CC[C@H](C)CCCCC(=O)*; Dab = NCC[C@H](N)C(=O)O
# Legend:
# [1] = used for fAUC/MIC; ref Nation et al., 2016; cited from earlier work
# Method: The AUC for each dosing regimen was calculated at 24 or 72 h after therapy to evaluate the probability of target attainment (PTA) of fAUC/MIC ≥20 ([Dudhani et al., 2010a]; [Cheah et al., 2015]), where f is the unbound fraction of colistin defined as 0.49 ([Nation et al., 2016]). Dosing regimens were considered appropriate if PTA ≥90% was achieved. In addition, the average steady-state plasma colistin concentration (Css,avg) was used to evaluate the probabilities of efficacy and toxicity, and the desired Css, avg were designed to achieve target attainment rates of >80% for Css,avg ≥ 2 and <30% ...
# [2] = design: method as in Al-Khayyat and Aronson, 1973; conditions: dogs; ref Al-Khayyat and Aronson, 1973; cited from earlier work
# [3] = Urinary excretion and renal clearance of colistin sulfate; assay type: in vivo, human
# Method: Colistin sulfate treatment was at the discretion of their medical teams. […] Colistin sulfate was routinely subjected to therapeutic drug monitoring (TDM) in our hospital. […] Other blood samples were collected randomly from residual blood of blood gas analysis or routine blood tests. In addition, urine samples from 6 patients with catheters in the intensive care unit were collected and recorded across a dosage interval (0–12 h after dosing) after 72 h of therapy. All samples were centrifuged for 10 min (4,000 ×g), and the supernatant was immediately collected and stored at −80°C pending analysis.
# Colistin A and colistin B in plasma and urinary samples were quantified using a validated ultraperformance liquid chromatography tandem mass spectrometry (LC-MS/MS) assay. Briefly, samples were pretreated with acetonitrile, and 1 μL supernatant was injected into the LC-MS/MS instrument for analysis. A Waters XBridge BEH HILIC (4.6 × 150 mm, 2.5 μm) column was used. The mobile phase, consisting of eluents A (0.1% formic acid in water, vol/vol) and B (methanol), was delivered at a flow of 0.5 ml/min. Analysis of independently prepared quality control samples indicated good reproducibility (coefficients of variation ≤12.57%), and accuracy ranged from 88.52% to 109.43%. The limit of quantification was 0.034 mg/L for colistin A and 0.059 mg/L for colistin B. Since colistin A and B had similar structures, molecular weights and pharmacokinetic characteristics, the concentrations of colistin A and B were added together and referred to as colistin ([Li et al., 2003]; [Couet et al., 2011]).
# The renal clearance (CLR) of colistin was calculated as the ratio of the amount recovered in urine to the area under the plasma concentration-time curve (AUC) during the same period ([Sandri et al., 2013]). The percentage of colistin sulfate excreted in urine was defined as the amount of colistin recovered in urine divided by the dose administered. The fraction of renal clearance was estimated by CLR divided by total body clearance (CL) ([Li et al., 2003]).
# [4] = system: carbapenem-resistant gram-negative bacteria; experiment: Clinical outcome, microbiological outcome and nephrotoxicity in patients; assay type: in vivo, human
# Method: The primary endpoint was the clinical outcome, and the secondary endpoint was the microbiological outcome. Clinical outcomes were defined as valid, if signs and symptoms of infection disappeared or improved on Day 7 after the initiation of colistin therapy; or invalid, defined as any of the following criteria: death related to infection, hemodynamic instability, deteriorated Sequential Organ Failure Assessment (SOFA) score, constant fever >38.5°C, repeat isolation of bacterial phenotypically identical to the index isolate. […] Colistin-induced nephrotoxicity was defined using RIFLE (risk, injury, failure, loss of kidney function, and end-stage renal disease) criteria during treatment ([Bellomo et al., 2004]). […]
# A. baumannii = experiment: MIC for colistin of causative pathogen; assay type: cell-based; conditions: AB
# K. pneumoniae = experiment: MIC for colistin of causative pathogen; assay type: cell-based; conditions: isolate of patient 2; KP
# [5] = design: method as in Li et al., 2003; conditions: Sprague-Dawley rats; ref Li et al., 2003; cited from earlier work
# [6] = patient 1, Pulmonary, PA+AB, MIC 0.5 mg/L, 1.0 MU q12h, with MER+LIN
# [7] = patient 2, Pulmonary, Bloodstream, Urinary tract, KP, MIC 0.5 mg/L, 1.0 MU q12h, with MER
# [8] = patient 3, Pulmonary, AB, MIC 0.5 mg/L, 0.75 MU q12h + inhaled 0.25MU q12h, with MER
# [9] = patient 6, Pulmonary, Bloodstream, KP, MIC 0.5 mg/L, 1.0 MU q12h + inhaled 0.25MU q12h, with PIP/TAZ
# [10] = patient 7, Pulmonary, KP, MIC 0.5 mg/L, 0.75 MU q12h + inhaled 0.25MU q12h, with MER, PIP/TAZ
# [11] = patient 8, Pulmonary, AB, MIC 2 mg/L, 0.75 MU q12h + inhaled 0.25MU q12h, with MER
# [12] = patient 9, Pulmonary, AB, MIC 0.5 mg/L, 0.75 MU q12h + inhaled 0.25MU q12h, with MER
# [13] = patient 10, Pulmonary, AB, MIC 0.5 mg/L, 0.75 MU q12h + inhaled 0.25MU q12h, with MER+LIN
# [14] = patient 11, Bloodstream, AB, MIC 0.5 mg/L, 1.0 MU q12h, with MER+TEI
# [15] = patient 12, Bloodstream, Urinary tract, KP, MIC 0.5 mg/L, 0.5 MU q8h, with CEF/AVI
# [16] = patient 13, Pulmonary, Bloodstream, KP, MIC 0.5 mg/L, 0.5 MU q8h, with CEF/AVI
# [17] = patient 14, Pulmonary, Bloodstream, Abdomen, KP, MIC 0.5 mg/L, 0.5 MU q8h, with CEF/AVI
# [18] = patient 15, Abdomen, PA+AB, MIC 1, 2 mg/L, 0.75 MU q8h + inhaled 0.25MU q12h, with MER+CEF/SUL
# [19] = patient 16, Pulmonary, AB, MIC 0.5 mg/L, 0.5 MU q8h + inhaled 0.25MU q12h, with MER+CEF/SUL
# [20] = patient 18, Pulmonary, AB, MIC 0.5 mg/L, 0.75 MU q12h + inhaled 0.25MU q12h, with MER
# [21] = patient 19, Pulmonary, AB, MIC 0.5 mg/L, 0.5 MU q8h, with MER+TEI
smiles,measurement,setting,value
CC[C@H](C)CCCCC(=O)N[C@@H](CCN)C(=O)N[C@H](C(=O)N[C@@H](CCN)C(=O)N[C@H]1CCNC(=O)[C@H]([C@@H](C)O)NC(=O)[C@H](CCN)NC(=O)[C@H](CCN)NC(=O)[C@H](CC(C)C)NC(=O)[C@@H](CC(C)C)NC(=O)[C@H](CCN)NC1=O)[C@@H](C)O [colistin sulfate] (X1-[Dab]T[Dab][Dab][Dab][dL]L[Dab][Dab]T; lactam 4-C),unbound fraction (f),[1],0.49
same,dose recovered from urine,[2],0.13 ± 0.09%
same,dose excreted,"[3]; human, iv, six patients, 41 urine samples, 0-12 h dosage interval after 72 h of therapy, median, read-out: percentage of colistin dose excreted in urine, median",10.1%
same,CLR,"[3]; patient 1, 1.0 MU q12h",0.133 L/h
same,CLR/CL,"[3]; patient 1, 1.0 MU q12h",9.15%
same,CLR,"[3]; patient 2, 1.0 MU q12h",0.405 L/h
same,CLR/CL,"[3]; patient 2, 1.0 MU q12h",15.58%
same,CLR,"[3]; patient 3, 0.75 MU q12h",0.108 L/h
same,CLR/CL,"[3]; patient 3, 0.75 MU q12h",2.52%
same,CLR,"[3]; patient 5, 0.75 MU q12h",0.284 L/h
same,CLR/CL,"[3]; patient 5, 0.75 MU q12h",17.95%
same,CLR,"[3]; patient 7, 0.75 MU q12h",0.053 L/h
same,CLR/CL,"[3]; patient 7, 0.75 MU q12h",4.64%
same,CLR,"[3]; patient 8, 0.75 MU q12h",0.767 L/h
same,"12-hour urinary excretion of colistin, median","[3]; six patients, median",4.149 mg
same,"CLR as percentage of CL (CLR/CL), median","[3]; six patients, median",12.37%
same,"renal clearance (CLR), median","[3]; six patients, median",0.209 L/h
same,successful clinical outcomes,"[4]; 12 of 16 cases, definitive therapy, Day 7",75%
same,microbiological eradication,"[4]; 13 of 16 subjects, causative pathogen MIC 0.5–2 mg/L",81.25%
same,colistin-induced nephrotoxicity (RIFLE criteria),[4]; during the treatment,None of the patients experienced colistin-induced nephrotoxicity
same,Clinical outcomes,[4]; [6],Valid
same,Microbiological outcomes,[4]; [6],clearance
same,Clinical outcomes,[4]; [7],Invalid
same,Microbiological outcomes,[4]; [7],clearance
same,Clinical outcomes,[4]; [8],Valid
same,Microbiological outcomes,[4]; [8],clearance
same,Clinical outcomes,[4]; [9],Valid
same,Microbiological outcomes,[4]; [9],clearance
same,Clinical outcomes,[4]; [10],Valid
same,Microbiological outcomes,[4]; [10],clearance
same,Clinical outcomes,[4]; [11],Invalid
same,Microbiological outcomes,[4]; [11],uncleared
same,Clinical outcomes,[4]; [12],Valid
same,Microbiological outcomes,[4]; [12],clearance
same,Clinical outcomes,[4]; [13],Valid
same,Microbiological outcomes,[4]; [13],clearance
same,Clinical outcomes,[4]; [14],Valid
same,Microbiological outcomes,[4]; [14],clearance
same,Clinical outcomes,[4]; [15],Valid
same,Microbiological outcomes,[4]; [15],clearance
same,Clinical outcomes,[4]; [16],Valid
same,Microbiological outcomes,[4]; [16],clearance
same,Clinical outcomes,[4]; [17],Valid
same,Microbiological outcomes,[4]; [17],clearance
same,Clinical outcomes,[4]; [18],Invalid
same,Microbiological outcomes,[4]; [18],uncleared
same,Clinical outcomes,[4]; [19],Valid
same,Microbiological outcomes,[4]; [19],clearance
same,Clinical outcomes,[4]; [20],Valid
same,Microbiological outcomes,[4]; [20],clearance
same,Clinical outcomes,[4]; [21],Invalid
same,Microbiological outcomes,[4]; [21],uncleared
same,MIC,A. baumannii; isolate of patient 8,2 mg/L
same,MIC,A. baumannii; isolate of patient 18,0.5 mg/L
same,MIC,A. baumannii; isolate of patient 19,0.5 mg/L
same,MIC,K. pneumoniae,0.5 mg/L
same,dose recovered from urine,[5],0.18 ± 0.14%

# Reference: publication PMC9465641 (Frontiers in Pharmacology, 2022)
